In US20110172304A1, “Sex Attractant of White Peach Scale and Attraction Method” (Shin-Etsu Chemical Co., Ltd., priority 2010, published 2011):

Legend:
Thomsonisca amathus = experiment: Field sticky-trap attraction test in a tea field, natural-enemy parasitoid wasp; format: in vivo; settings: number attracted to trap relative to Comparative Example 1 (100% Z isomer) = 100, rubber cap with 0.1 mg in total of Z and E isomers, white sticky trap, June 2007
Method: (§1) In accordance with the process described in J. Org. Chem. 1980, 45, 2910-2913, (R,Z)-(+)-3,9-dimethyl-6-isopropenyl-3,9-decadienyl propionate, the sex pheromone of white peach scale, was synthesized. The product thus obtained was separated into the Z isomer and the E isomer by using medium-pressure liquid column chromatography. A gray rubber cap (produced by West in US) impregnated with 0.1 mg in total of the Z isomer and the E isomer at a weight ratio of 100:0, 90:10, 80:20, 70:30, 60:40, 50:50, 40:60, 20:80 or 0:100 was used as an attractant for test.
(§2) In the emerging season of first-generation adult males of white peach scale in June, 2007, the attractant described above was attached to a white sticky trap and placed at intervals of 10 m on ridges in a tea field. The numbers of adult males of white peach scale and Thomsonisca amathus, a parasitoid wasp and natural enemy thereof, which had stuck to the sticky plates, was counted every day, respectively.
(§3) When the number of adult males of white peach scale attracted to the trap in Comparative Example 1 comprising an attractant containing 100% of (R,Z)-(+)-3,9-dimethyl-6-isopropenyl-3,9-decadienyl propionate was assigned as 100, the number attracted to each trap was calculated as a relative value. In the attraction test of Thomsonisca amathus, similar data processing was performed.

[1] = system: adult males of white peach scale; experiment: Field sticky-trap attraction test in a tea field, adult males of white peach scale; format: in vivo, Pseudaulacaspis pnetagona; settings: number attracted to trap relative to Comparative Example 1 (100% Z isomer) = 100, rubber cap with 0.1 mg in total of Z and E isomers, June 2007
Method: as §1, §2, §3

Row | SMILES | attraction of Thomsonisca amathus (Thomsonisca amathus) | attraction of adult males of white peach scale [1]
1 | C=C(C)CC[C@H](C/C=C(/C)CCOC(=O)CC)C(=C)C [Comp.Ex. 1, (R,Z)-(+)-3,9-dimethyl-6-isopropenyl-3,9-decadienyl propionate] | 100.0% | 100.0%
2 | C=C(C)CC[C@H](C/C=C(\C)CCOC(=O)CC)C(=C)C [Comp.Ex. 4, (R,E)-(+)-3,9-dimethyl-6-isopropenyl-3,9-decadienyl propionate] | 0.0% | 0.0%
